# Assay results reported in patent publication US7579469B2, “Glucocorticoid mimetics, methods of making them, pharmaceutical compositions, and uses thereof” (Boehringer Ingelheim Pharmaceuticals, Inc., priority 2003, dated 2009).
# Target: T1, human glucocorticoid receptor (GR) complex (Homo sapiens, UniProt P04150)
# T1 construct: made in house; host or cells: insect expression system (baculovirus lysate)
# T1 sequence (P04150 1-777): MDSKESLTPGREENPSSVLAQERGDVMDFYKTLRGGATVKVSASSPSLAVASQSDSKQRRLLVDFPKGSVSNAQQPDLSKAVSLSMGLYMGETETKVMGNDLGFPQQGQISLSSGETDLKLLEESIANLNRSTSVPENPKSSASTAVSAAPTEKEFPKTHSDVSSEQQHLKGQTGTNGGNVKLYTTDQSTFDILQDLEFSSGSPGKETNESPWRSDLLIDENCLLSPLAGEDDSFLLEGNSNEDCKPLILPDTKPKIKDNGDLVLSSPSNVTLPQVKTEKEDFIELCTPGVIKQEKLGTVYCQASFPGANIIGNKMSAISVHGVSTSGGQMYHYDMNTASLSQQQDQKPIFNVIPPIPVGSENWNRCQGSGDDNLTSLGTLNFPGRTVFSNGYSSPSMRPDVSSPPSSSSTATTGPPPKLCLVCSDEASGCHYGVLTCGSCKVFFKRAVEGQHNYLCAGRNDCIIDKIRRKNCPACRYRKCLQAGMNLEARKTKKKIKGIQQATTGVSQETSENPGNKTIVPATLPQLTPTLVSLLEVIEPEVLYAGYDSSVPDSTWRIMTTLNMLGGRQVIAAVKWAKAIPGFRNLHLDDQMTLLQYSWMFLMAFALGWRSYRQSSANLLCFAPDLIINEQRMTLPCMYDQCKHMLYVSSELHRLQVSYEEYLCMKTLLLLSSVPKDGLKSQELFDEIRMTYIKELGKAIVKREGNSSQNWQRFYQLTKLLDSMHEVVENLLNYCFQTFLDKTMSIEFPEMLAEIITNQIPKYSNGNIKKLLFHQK
# Assay: Glucocorticoid receptor competitive binding assay (fluorescence polarization)
# Conditions: competition with TAMRA-labeled dexamethasone
# Procedure, shortened: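 Fluorescence polarization competition against TAMRA-labelled dexamethasone (50 μL of 15 nM added) for human GR complex from baculovirus insect-cell lysate, diluted 1:170, in TES/KCl/molybdate buffer, pH 7.4.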
row,Compound,activity in the GR binding assay
1,COc1ccc(F)cc1C(C)(C)CC(O)(Cn1cc(CO)c(=O)c2ccccc21)C(F)(F)F (centres unmarked) [1-[4-(5-Fluoro-2-methoxyphenyl)-2-hydroxy-4-methyl-2-trifluoromethylpentyl]-3-hydroxymethyl-1H-quinolin-4-one],potent activity
2,COc1ccc(F)cc1C(C)(C)CC(O)(Cn1cc(C(F)(F)F)cc([N+](=O)[O-])c1=O)C(F)(F)F (centres unmarked) [1-[4-(5-Fluoro-2-methoxyphenyl)-2-hydroxy-4-methyl-2-trifluoromethylpentyl]-3-nitro-5-trifluoromethyl-1H-pyridin-2-one],potent activity
3,"Cc1ccc(F)cc1C(C)(C)CC(O)(Cn1ccc(=O)c2ncccc21)C(F)(F)F (centres unmarked) [1-[4-(5-Fluoro-2-methylphenyl)-2-hydroxy-4-methyl-2-trifluoromethylpentyl]-1H-[1,5]naphthyridin-4-one]",potent activity
4,"Cc1ccc(F)cc1C(C)(C)CC(O)(Cn1cc(C)c(=O)c(C)c1)C(F)(F)F (centres unmarked) [1-[4-(5-Fluoro-2-methylphenyl)-2-hydroxy-4-methyl-2-trifluoromethylpentyl]-3,5-dimethyl-1H-pyridin-4-one]",potent activity
5,COc1ccc(-c2ccoc2)cc1C(C)(C)CC(O)(Cn1ccc(=O)c2ccccc21)C(F)(F)F (centres unmarked) [1-[4-(5-Furan-3-yl-2-methoxyphenyl)-2-hydroxy-4-methyl-2-trifluoromethylpentyl]-1H-quinolin-4-one],potent activity
6,"Cc1cc2c(c(C(C)(C)CC(O)(Cn3ccc(=O)c4ccccc43)C(F)(F)F)c1)OCC2 (centres unmarked) [1-[4-(5-Methyl-2,3-dihydrobenzofuran-7-yl)-2-hydroxy-4-methyl-2-trifluoromethylpentyl]-1H-quinolin-4-one]",potent activity
7,"COc1ccc(C2OCCCO2)cc1C(C)(C)CC(O)(Cn1ccc(=O)c2ccccc21)C(F)(F)F (centres unmarked) [1-[4-(5-[1,3]Dioxan-2-yl-2-methoxyphenyl)-2-hydroxy-4-methyl-2-trifluoromethylpentyl]-1H-quinolin-4-one]",potent activity
8,"CC(C)(CC(O)(Cn1ccc(=O)c2ccccc21)C(F)(F)F)c1cc(Br)cc2c1OCO2 (centres unmarked) [1-[4-(6-Bromobenzo[1,3]dioxol-4-yl)-2-hydroxy-4-methyl-2-trifluoromethylpentyl]-1H-quinolin-4-one]",potent activity
9,CC(C)(CC(O)(Cn1ccc(=O)c2ccccc21)C(F)(F)F)c1ccccc1 (centres unmarked) [1-[4-Phenyl-2-hydroxy-4-methyl-2-trifluoromethylpentyl]-1H-quinolin-4-one],potent activity
10,"CC(C)(CC(O)(Cn1ccc(=O)c2ccccc21)C(F)(F)F)c1cccc(C2(C)OCCO2)c1 (centres unmarked) [1-{2-Hydroxy-4-methyl-4-[3-(2-methyl-[1,3]dioxolan-2-yl)phenyl]-2-trifluoromethylpentyl}-1H-quinolin-4-one]",potent activity
11,CC(=O)COc1cccc(C(C)(C)CC(O)(Cn2ccc(=O)c3ccccc32)C(F)(F)F)c1 (centres unmarked) [1-{2-Hydroxy-4-methyl-4-[3-(2-oxopropoxy)phenyl]-2-trifluoromethylpentyl}-1H-quinolin-4-one],potent activity
12,"Cc1noc(C)c1-c1cccc(C(C)(C)CC(O)(Cn2ccc(=O)c3ccccc32)C(F)(F)F)c1 (centres unmarked) [1-{4-[3-(3,5-Dimethylisoxazol-4-yl)phenyl]-2-hydroxy-4-methyl-2-trifluoromethylpentyl}-1H-quinolin-4-one]",potent activity
13,"COc1ccc(F)cc1C(C)(C)CC(O)(CN1CCN(C(C)=O)c2ccccc21)C(F)(F)F (centres unmarked) [1-{4-[4-(5-Fluoro-2-methoxyphenyl)-2-hydroxy-4-methyl-2-trifluoromethylpentyl]-3,4-dihydro-2H-quinoxalin-1-yl}ethanone]",potent activity
14,"Cc1noc(C)c1-c1ccc(O)c(C(C)(C)CC(O)(Cn2ccc(=O)c3ccccc32)C(F)(F)F)c1 (centres unmarked) [1-{4-[5-(3,5-Dimethylisoxazol-4-yl)-2-hydroxyphenyl]-2-hydroxy-4-methyl-2-trifluoromethylpentyl}-1H-quinolin-4-one]",potent activity
15,"COc1ccc(-c2c(C)noc2C)cc1C(C)(C)CC(O)(Cn1ccc(=O)c2ccccc21)C(F)(F)F (centres unmarked) [1-{4-[5-(3,5-Dimethylisoxazol-4-yl)-2-methoxyphenyl]-2-hydroxy-4-methyl-2-trifluoromethylpentyl}-1H-quinolin-4-one]",potent activity
16,CC(=O)COc1ccc(F)cc1C(C)(C)CC(O)(Cn1ccc(=O)c2ccccc21)C(F)(F)F (centres unmarked) [1-{4-[5-Fluoro-2-(2-oxopropoxy)phenyl]-2-hydroxy-4-methyl-2-trifluoromethylpentyl}-1H-quinolin-4-one],potent activity
17,"COc1ccc(F)cc1C(C)(C)CC(O)(CN1CCS(=O)(=O)c2ccccc21)C(F)(F)F (centres unmarked) [2-(1,1-Dioxo-2,3-dihydro-1H-1λ^6-benzo[1,4]thiazin-4-ylmethyl)-1,1,1-trifluoro-4-(5-fluoro-2-methoxyphenyl)-4-methylpentan-2-ol]",potent activity
18,"COc1ccc(F)cc1C(C)(C)CC(O)(CN1CCSc2ccccc21)C(F)(F)F (centres unmarked) [2-(2,3-Dihydrobenzo[1,4]thiazin-4-ylmethyl)-1,1,1-trifluoro-4-(5-fluoro-2-methoxyphenyl)-4-methylpentan-2-ol]",potent activity
19,"COc1ccc(F)cc1C(C)(C)CC(O)(CN1CCc2ccccc21)C(F)(F)F (centres unmarked) [2-(2,3-Dihydroindol-1-ylmethyl)-1,1,1-trifluoro-4-(5-fluoro-2-methoxyphenyl)-4-methylpentan-2-ol]",potent activity
20,"COc1ccc(F)cc1C(C)(C)CC(O)(CN1CCNc2ccccc21)C(F)(F)F (centres unmarked) [2-(3,4-Dihydro-2H-quinoxalin-1-ylmethyl)-1,1,1-trifluoro-4-(5-fluoro-2-methoxyphenyl)-4-methylpentan-2-ol]",potent activity
21,"COc1ccc(F)cc1C(C)(C)CC(O)(CN1CCN(c2ncc(C(F)(F)F)cc2Cl)CC1)C(F)(F)F (centres unmarked) [2-[4-(3-Chloro-5-trifluoromethylpyridin-2-yl)piperazin-1-ylmethyl]-1,1,1-trifluoro-4-(5-fluoro-2-methoxyphenyl)-4-methylpentan-2-ol]",potent activity
22,COc1ccc(F)cc1C(C)(C)CC(O)(Cn1cc(C(F)(F)F)cc(Cl)c1=O)C(F)(F)F (centres unmarked) [3-Chloro-1-[4-(5-fluoro-2-methoxyphenyl)-2-hydroxy-4-methyl-2-trifluoromethylpentyl]-5-trifluoromethyl-1H-pyridin-2-one],potent activity
23,"CC(C)(CC(O)(Cn1ccc(=O)c2ccccc21)C(F)(F)F)c1cccc(C=O)c1 (centres unmarked) [3-[4,4,4-Trifluoro-3-hydroxy-1,1-dimethyl-3-(4-oxo-4H-quinolin-1-ylmethyl)butyl]benzaldehyde]",potent activity
24,"COc1ccc(C=O)cc1C(C)(C)CC(O)(Cn1ccc(=O)c2ccccc21)C(F)(F)F (centres unmarked) [4-Methoxy-3-[4,4,4-trifluoro-3-hydroxy-1,1-dimethyl-3-(4-oxo-4H-quinolin-1-ylmethyl)butyl]benzaldehyde]",potent activity
25,"COc1ccc(F)cc1C(C)(C)CC(O)(CN1CC(C)N(C=O)C(C)C1)C(F)(F)F (centres unmarked) [4-[4-(5-Fluoro-2-methoxyphenyl)-2-hydroxy-4-methyl-2-trifluoromethylpentyl]-2,6-dimethylpiperazine-1-carbaldehyde]",potent activity
26,CC(C)(CC(O)(Cn1ccc(=O)c2cc(Cl)ccc21)C(F)(F)F)c1cc(F)ccc1O (centres unmarked) [6-Chloro-1-[4-(5-fluoro-2-hydroxyphenyl)-2-hydroxy-4-methyl-2-trifluoromethylpentyl]-1H-quinolin-4-one],potent activity
27,COc1ccc(F)cc1C(C)(C)CC(O)(Cn1ccc(=O)c2cc(Cl)ccc21)C(F)(F)F (centres unmarked) [6-Chloro-1-[4-(5-fluoro-2-methoxyphenyl)-2-hydroxy-4-methyl-2-trifluoromethylpentyl]-1H-quinolin-4-one],potent activity
28,CC(C)(CC(O)(Cn1ccc(=O)c2cc(F)ccc21)C(F)(F)F)c1cc(F)ccc1O (centres unmarked) [6-Fluoro-1-[4-(5-fluoro-2-hydroxyphenyl)-2-hydroxy-4-methyl-2-trifluoromethylpentyl]-1H-quinolin-4-one],potent activity
29,COc1ccc(F)cc1C(C)(C)CC(O)(Cn1ccc(=O)c2cc(F)ccc21)C(F)(F)F (centres unmarked) [6-Fluoro-1-[4-(5-fluoro-2-methoxyphenyl)-2-hydroxy-4-methyl-2-trifluoromethylpentyl]-1H-quinolin-4-one],potent activity
